Broadly, the EC50 is the midpoint of the concentration-response curve. In general, IC50 refers to the concentration at which inhibition is half-maximal. Broadly, the CC50 is the concentration giving 50% cytotoxicity.

From ChEMBL document CHEMBL6083236, “Identification of novel diarylpyrimidine derivatives as potent HIV-1 non-nucleoside reverse transcriptase inhibitors against wild-type and K103N mutant viruses” (Eur J Med Chem, 2024) come the findings set out here.

SMILES strings stand for the structures.

Data set [1] deals with Human immunodeficiency virus 1. The data set is described as follows: Antiviral activity against HIV1 harboring K103 N mutant infected in human MT4 cells assessed as reduction in virus induced cytopathic effect incubated for 5 days by Spectrophotometric based MTT assay. The format is functional, organism-based. To be noted: Human immunodeficiency virus 1, MT4, 120 h. A general note: Protection from cytopathic effect is a common read-out in antiviral testing.

For data set [2], the target named is Human immunodeficiency virus type 1 reverse transcriptase (Human immunodeficiency virus 1, UniProt Q72547). The data set is described as follows: Inhibition of wild type HIV1 reverse transcriptase assessed as inhibition of biotin deoxyuridine triphosphate incorporation into cDNA using DIG-labelled dNTP preincubated with compound for 1 hr followed by substrate addition in presence of biotin-labeled dNTPs by ELISA analysis. For orientation: In an ELISA, binding on a coated surface is turned into a signal by an enzyme label.

The test system of data set [3] is Human immunodeficiency virus 1. The data set is described as follows: Antiviral activity against wild type HIV1 IIIB infected in human MT4 cells assessed as reduction in virus induced cytopathic effect incubated for 5 days by Spectrophotometric based MTT assay. It is filed as functional, organism-based. Conditions: Human immunodeficiency virus 1, IIIB, MT4, 120 h.

Data set [4] relates to Human immunodeficiency virus 1. The data set is described as follows: Antiviral activity against HIV1 harboring RES056 mutant infected in human MT4 cells assessed as reduction in virus induced cytopathic effect incubated for 5 days by Spectrophotometric based MTT assay. The format is functional, organism-based. Conditions: Human immunodeficiency virus 1, RES056, MT4, 120 h.

Data set [5] deals with Human immunodeficiency virus 1. The data set is described as follows: Antiviral activity against HIV1 harboring L100I mutant infected in human MT4 cells assessed as reduction in virus induced cytopathic effect incubated for 5 days by Spectrophotometric based MTT assay. The format is functional, organism-based. To be noted: Human immunodeficiency virus 1, MT4, 120 h.
Data set [6] has as its system Human immunodeficiency virus 1. The data set is described as follows: Antiviral activity against HIV1 harboring E138K mutant infected in human MT4 cells assessed as reduction in virus induced cytopathic effect incubated for 5 days by Spectrophotometric based MTT assay. It is filed as functional, organism-based. Conditions: Human immunodeficiency virus 1, MT4, 120 h.

The test system of data set [7] is Human immunodeficiency virus 1. The data set is described as follows: Antiviral activity against HIV1 harboring Y188L mutant infected in human MT4 cells assessed as reduction in virus induced cytopathic effect incubated for 5 days by Spectrophotometric based MTT assay. The format is functional, organism-based. Conditions: Human immunodeficiency virus 1, MT4, 120 h.

Data set [8] relates to Human immunodeficiency virus 1. The data set is described as follows: Antiviral activity against HIV1 harboring Y181C mutant infected in human MT4 cells assessed as reduction in virus induced cytopathic effect incubated for 5 days by Spectrophotometric based MTT assay. The format is functional, organism-based. Conditions: Human immunodeficiency virus 1, MT4, 120 h.
In data set [9] the test system is MT4. The data set is described as follows: Cytotoxicity against human MT4 cells assessed as reduction in cell viability incubated for 5 days by Spectrophotometric based MTT assay. The format is functional. Conditions: MT4, 120 h, time 5 day. On the technique in general: Formazan colour is commonly taken as a measure of viable cells.
For data set [10], the system named is Human immunodeficiency virus 1. The data set is described as follows: Antiviral activity against HIV1 harboring F227L/V106A mutant infected in human MT4 cells assessed as reduction in virus induced cytopathic effect incubated for 5 days by Spectrophotometric based MTT assay. Conditions: Human immunodeficiency virus 1, MT4, 120 h. It is filed as functional, organism-based.

A short description of data set [11]: Selectivity index, ratio of CC50 for cytotoxicity against human MT4 cells to EC50 for antiviral activity against HIV1 RES056 mutant infected in human MT4 cells. To be noted: MT4 cells.
Data set [12] is described as follows: Selectivity index, ratio of CC50 for cytotoxicity against human MT4 cells to EC50 for antiviral activity against wild type HIV1 IIIB infected in human MT4 cells. Conditions: MT4 cells.

Turning to `Cc1cc(/C=C/C#N)cc(C)c1Oc1ccnc(Nc2ccc(N3CCS(=O)(=O)CC3)c(C#N)c2)n1`, the EC50 is 0.002 µM in data set [1]; 0.002 µM in data set [3]; 0.26 µM in data set [4]; 0.004 µM in data set [5]; 0.009 µM in [6]; over 58.3 µM in [7]. Also, the EC50 is 0.012 µM in data set [8] and 0.058 µM in [10]. In [2], the IC50 came to 0.16 µM. The CC50 in [9] is 58.2 µM.
In the case of `Cc1cc(/C=C/C#N)cc(C)c1Oc1ccnc(Nc2ccc(N3CCN(S(C)(=O)=O)C3=O)c(C#N)c2)n1`, the selectivity ratio in data set [11] came to 192; in data set [12], 29900. For the same compound, the EC50 in [1] was 0.002 µM; in data set [3], 0.001 µM; in data set [4] it was 0.18 µM; in data set [5] it was 0.006 µM; in data set [6], 0.038 µM; in [7], 1.77 µM. Also, the EC50 in data set [8] is 0.014 µM; in [10], 0.11 µM. For the same compound, in [2], the IC50 was 0.24 µM. Besides, the CC50 in data set [9] amounted to 35.3 µM.
On to `Cc1cc(/C=C/C#N)cc(C)c1Oc1ccnc(Nc2ccc(N3CCN(S(N)(=O)=O)CC3)c(C#N)c2)n1`, for which the selectivity ratio in data set [11] came out at 26; in data set [12], 1540. Further, the EC50 stood at 0.003 µM in data set [1]; 0.004 µM in data set [3]; 0.23 µM in data set [4]; 0.007 µM in data set [5]; 0.029 µM in data set [6]; 1.17 µM in data set [7]. Further, the EC50 in data set [8] is 0.032 µM; in data set [10], 0.013 µM. Further, the IC50 in data set [2] stood at 0.13 µM. For the same compound, the CC50 in [9] came out at 5.88 µM.
Regarding `Cc1cc(/C=C/C#N)cc(C)c1Oc1ccnc(Nc2ccc(N3CC[S+]([O-])CC3)c(C#N)c2)n1`, the selectivity ratio in data set [11] came to 45; in data set [12] it was 19300. The concentration for a half-maximal effect (EC50) is 0.004 µM in data set [1]; 0.005 µM in data set [3]; 2.19 µM in [4]; 0.022 µM in data set [5]; 0.026 µM in [6]; over 97.8 µM in data set [7]. In addition, the half-maximal effective concentration (EC50) came to 0.046 µM in data set [8] and 0.19 µM in [10]. In data set [9], the CC50 stood at 97.8 µM.
With `CC(=O)N1CCN(c2ccc(Nc3nccc(Oc4c(C)cc(/C=C/C#N)cc4C)n3)cc2C#N)CC1`, the selectivity ratio came to 12 in data set [11] and 1280 in data set [12]. Further, the EC50 was 0.003 µM in data set [1]; 0.005 µM in data set [3]; 0.55 µM in data set [4]; 0.062 µM in data set [5]; 0.03 µM in [6]; over 6.64 µM in data set [7]. For the same compound, the EC50 in data set [8] turned out to be 0.065 µM; in data set [10] it was 0.044 µM. Further, the CC50 in [9] turned out to be 6.64 µM.
As to `Cc1cc(/C=C/C#N)cc(C)c1Oc1ccnc(Nc2ccc(N3CCC(C#N)CC3)c(C#N)c2)n1`, the selectivity ratio in data set [11] is over 30; in [12], over 4560. Also, the EC50 was 0.013 µM in data set [1]; 0.009 µM in data set [3]; 1.39 µM in data set [4]; 0.23 µM in data set [5]; 0.11 µM in [6]; over 42.1 µM in data set [7]. Besides, the EC50 in data set [8] was 0.13 µM; in data set [10], 0.29 µM. The CC50 in [9] is over 42.1 µM.
On to `Cc1cc(/C=C/C#N)cc(C)c1Oc1ccnc(Nc2ccc(N3CCS(=O)(=O)CC3=O)c(C#N)c2)n1`, for which the selectivity ratio in data set [11] worked out at 37; in data set [12], 8130. Besides, the EC50 was 0.003 µM in data set [1]; 0.004 µM in data set [3]; 0.91 µM in data set [4]; 0.083 µM in data set [5]; 0.13 µM in data set [6]; 18.4 µM in data set [7]. Also, the EC50 in data set [8] came to 0.14 µM; in data set [10], 0.25 µM. The CC50 in data set [9] is 34 µM.
